Assay results reported in patent US9889176B2, “Treating renal and liver dysfunction with TLR4 antagonists” (YAQRIT LIMITED, priority 2010, dated 2018).

What was measured:
[1] = system: bile duct ligated (BDL) rat; assay: Bile duct ligated (BDL) rat model of cirrhosis with or without LPS: renal dysfunction, selective gut decontamination; type: in vivo, Sprague-Dawley rats; conditions: for kidney TLR4 protein expression (Western Blot) / plasma creatinine: Norfloxacin 20 mg/kg orally for 10 days; for kidney TLR4 protein expression (Western Blot): FIG. 9; for NFkBp65 expression in Kidney: FIG. 10; for plasma creatinine: FIG. 8
From the text: These experiments utilised an established animal model of cirrhosis, the bile duct ligated (BDL) rat. BDL rats may be generated by methods known in the art. For example, male Sprague-Dawley rats (200-250 g) may be used for this procedure. Following anaesthetisation, a mid-line laparotamy may be performed, the bile duct exposed, triply ligated with 4.0 silk suture, and severed between the second and third ligature. The wound is then closed in layers with absorbable suture, and the animal allowed to recover in a quiet room before being returned to the animal storage facility. 6 groups of Sprague-Dawley rats were studied: n=6 in each group. […] The aims of this study was to determine (1) Whether cirrhosis is associated with an upregulation of TLR4, NFkB and proinflammatory cytokines in kidney. […] Biochemistry: Functional aspect of Kidneys was assessed by measuring plasma creatinine. Protein expression of TLR4 and NFkBp65 was assessed using a commonly used Western Blot technique. Localisation of TLR4 and Caspase (effector protein leading to cell death) was done by Immunohistochemistry. Cytokines were quantified using the ELISA bead array.

[2] = system: BDL rats; assay: Brain TLR4 expression, brain water and survival in BDL rats with or without LPS; type: in vivo; conditions: for brain TLR4 immunohistochemistry: FIG. 23
From the text: These experiments utilised an established animal model of cirrhosis, the bile duct ligated (BDL) rat. BDL rats may be generated by methods known in the art. For example, male Sprague-Dawley rats (200-250 g) may be used for this procedure. Following anaesthetisation, a mid-line laparotamy may be performed, the bile duct exposed, triply ligated with 4.0 silk suture, and severed between the second and third ligature. The wound is then closed in layers with absorbable suture, and the animal allowed to recover in a quiet room before being returned to the animal storage facility. 6 groups of Sprague-Dawley rats were studied: n=6 in each group. […] Experiments were carried out using Sham treated and BDL rats as described above.

[3] = BDL and BDL+LPS groups, FIG. 13

With `CCn1cc(C(=O)O)c(=O)c2cc(F)c(N3CCNCC3)cc21` [Norfloxacin] as the compound, how does the “kidney TNFα” value ([1]; BDL and BDL+LPS groups, FIG. 11) read?
Its value is “prevented the rise”.

What about the “Kidney IL6 (local IL6 production)” value ([1]; BDL and BDL+LPS groups, FIG. 12) of the same compound?
The value was “no effect”.

What about the “plasma IL6 (systemic proinflammatory cytokine)” value [1, 3] of the same compound?
Its value is “reducing the secretion of cytokines”.

What about the “plasma TNFα (systemic proinflammatory cytokine)” value [1, 3] of the same compound?
Its value is “reducing the secretion of cytokines”.

And the “kidney caspase 3 (cell death), immunohistochemistry” value ([1]; BDL and BDL+LPS groups, FIG. 16)?
The value was “reduction in the caspase positivity”.

And the “kidney TLR4 protein expression (Western Blot)” value ([1]; BDL group administered LPS, p=0.02)?
The value was “reduced”.

What about the “NFkBp65 expression in Kidney” value ([1]; BDL rats administered LPS, p=0.01) of the same compound?
Its value is “attenuated”.

And the plasma creatinine ([1]; BDL rats, p=0.02)?
The plasma creatinine was “reduction”.

And the “kidney TLR4 protein expression (Western Blot)” value ([1]; BDL rats, p=0.02)?
Its value is “reduced”.

And the “NFkBp65 expression in Kidney” value ([1]; BDL rats, p=0.02)?
Its value is “attenuated”.

What about the “renal failure induced by LPS” value ([1]; BDL rats, selective gut decontamination) of the same compound?
The value was “prevents renal failure”.

And the plasma creatinine ([1]; BDL+LPS rats, p=0.03)?
The plasma creatinine was “reduction”.

And the “brain TLR4 immunohistochemistry” value ([2]; BDL animals treated with LPS)?
The value was “could be prevented”.

What about the “brain TLR4 immunohistochemistry” value ([2]; BDL animals) of the same compound?
Its value is “could be prevented”.

And the “brain TLR4 protein expression” value ([2]; increase in BDL and BDL+LPS rats, FIG. 22)?
Its value is “could be prevented”.

And the “brain swelling measured by brain water” value ([2]; increase in BDL and BDL+LPS rats, FIG. 24)?
The value was “could be prevented”.
